Entries after “also recorded” stand apart in the source; their conditions may differ. Non-standard residues stand in square brackets, D forms with d. Residues, ends and D or L forms follow the SMILES beside them. *: point of attachment. Phenylacetyl(2,3,4,5,6-F5) = O=C(Cc1c(F)c(F)c(F)c(F)c1F)*; Phe(F5) = N[C@@H](Cc1c(F)c(F)c(F)c(F)c1F)C(=O)O; Phe(4-Cl) = N[C@@H](Cc1ccc(Cl)cc1)C(=O)O; hArg = N=C(N)NCCCC[C@H](N)C(=O)O; 12Ado = NCCCCCCCCCCCC(=O)O; Nle = CCCC[C@H](N)C(=O)O; Abu = CC[C@H](N)C(=O)O
How the values were obtained:
[1] = biological target: T1, membrane GHRH-receptors on human anterior pituitary cells (Homo sapiens, UniProt Q02643); assay: Competitive receptor binding, displacement of 125I-[His1,Nle27]-hGH-RH(1-32)NH2 from human pituitary membranes
T1 construct: Human pituitary was purchased from the National Hormone and Peptide Program; tissue National Hormone and Peptide Program; host or cells: human pituitary membrane fractions
T1 sequence (Q02643 23-423): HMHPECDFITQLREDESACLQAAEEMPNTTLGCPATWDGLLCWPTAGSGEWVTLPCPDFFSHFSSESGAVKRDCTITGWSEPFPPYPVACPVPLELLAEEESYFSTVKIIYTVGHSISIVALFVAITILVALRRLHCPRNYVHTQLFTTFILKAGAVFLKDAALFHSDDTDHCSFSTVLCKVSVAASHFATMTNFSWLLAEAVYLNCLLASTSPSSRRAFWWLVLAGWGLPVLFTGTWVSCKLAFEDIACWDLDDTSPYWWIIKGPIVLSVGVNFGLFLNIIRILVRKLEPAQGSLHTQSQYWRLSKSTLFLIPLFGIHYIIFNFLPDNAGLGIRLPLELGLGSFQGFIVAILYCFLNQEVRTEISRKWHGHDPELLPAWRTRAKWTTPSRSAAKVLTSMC
Method: Receptor binding affinities in vitro. Preparation of human pituitary membrane fractions and receptor binding of analogs of GH-RH were performed (Halmos G, Rekasi Z, Szoke B, Schally A V. (1993) Receptor 3:87-97). Human pituitary was purchased from the National Hormone and Peptide Program. […] Relative affinities compared to hGH-RH(1-29)NH2 were calculated as the ratio of IC50 (dose causing 50% inhibition of specific binding to receptors) of the tested peptides to the IC50 of hGH-RH(1-29)NH2. The values were calculated from technical duplicate tubes.
Nineteen new AVR analogs of GHRH were tested in the receptor binding assay. Table 6 presents the IC50 values of GHRH antagonists to membrane GHRH-receptors binding on human anterior pituitary cells.

NCI-N87 xenograft = assay: Xenograft tumor growth in nude mice, stomach cancer N87; assay type: in vivo; settings: Panel F, 4 weeks, 5 μg/day s.c., vs control
Method: (§1) The peptides' activity was compared with GHRH antagonist MIA-602. All statistical analyzses were performed from comparing GHRA antagonists to non-treated tumor (control).
(§2) Peptides and chemicals. GHRH antagonists MIA-602 and AVR-GHRH antagonists (see Table 2 above) were synthesized by solid phase methods and purified by HPLC. The peptides were dissolved in DMSO and further diluted in 10% 1, 2-propanediol. The final concentration of peptides was 50 µg/ml in 10% 1, 2-propanediol containing 0.1% of DMSO.
(§3) Cell culture. Human cancer cell lines including pancreatic (PANC-1 and CFPAC-1), lung (HCC827 and H460), stomach (NCI-N87), prostate (PC3), brest (MX-1 and HCC-1806), colorectal (HT-29), and ovarian (SK-OV-3 and OVCAR-3) were obtained from the American Type Culture Collection (ATCC) and cultured at 37° C. in a humidified 95% air/5% CO2 atmosphere in the medium recommended by ATCC.
Xenograft models of human cancers in nude mice. Female athymic (NCr nu/nu) nude mice, 5-to 6-weeks-old, obtained from the Envigo labs (Tampa, FL), were housed in laminar airflow cabinets under pathogen-free conditions with a 12-h light/12-h dark schedule, and were fed autoclaved standard chow and water. To generate mice with xenografted tumors, tumor xenografts were initiated by subcutaneous (s.c.) injection of […] human cancer cells into female nude mice. After about 4 weeks the resulting tumors were dissected and collected after removing necrosis tissues. The tumors were then cut into particles with size of ˜3 mm3 and transplanted s.c. by trocar needle into experimental animals. When tumors grew to the size of 50-60 mm3 (by volume), […] of 5 μg of GHRH antagonists MIA-602 or AVR-compounds (2-10 μg as indicated), or vehicle solutions (0.1% DMSO in 10% 1, 2-propanediol) respectively. Tumor sizes were measured weekly.
(§4) Statistical analysis. One-way ANOVA followed by Bonferroni comparison were performed. Data are expressed as Mean±SEM. To determine statistical significance between animal groups, two-tailed Student's t-test was conducted. Differences were considered significant when p<0.05.
(§5) Results. […] FIG. 1A-N represents in vivo inhibition of tumor growth during the treatment with GHRH antagonist MIA-602 and selected AVR antagonists in nude mice xenografted with various human tumors including pancreatic cancer PANC-1 (FIG. 1A) and CFPAC-1 (FIG. 1I); lung cancer HCC827 (FIGS. 1B, C) and H460 (FIG. 1H); stomach cancer N87 (FIGS. 1D-F); colon cancer HT-29 (FIG. 1G); breast cancer MX-1 and HCC-1806 (FIGS. 1J, K); ovarian cancer SK-OV-3 and OVACAR-3 (FIGS. 1L, M) and prostate cancer PC3 (FIG. 1N). See also Table 5.

HCC827 xenograft = assay: Xenograft tumor growth in nude mice, lung cancer HCC827; assay type: in vivo; settings: 5 μg/day s.c., vs control
Method: as §1, §2, §3
(§6) Xenograft models of human cancers in nude mice. Female athymic (NCr nu/nu) nude mice, 5-to 6-weeks-old, obtained from the Envigo labs (Tampa, FL), were housed in laminar airflow cabinets under pathogen-free conditions with a 12-h light/12-h dark schedule, and were fed autoclaved standard chow and water. To generate mice with xenografted tumors, tumor xenografts were initiated by subcutaneous (s.c.) injection of […] human cancer cells into female nude mice. After about 4 weeks the resulting tumors were dissected and collected after removing necrosis tissues. The tumors were then cut into particles with size of ˜3 mm3 and transplanted s.c. by trocar needle into experimental animals. When tumors grew to the size of 50-60 mm3 (by volume), mice were randomized into groups and treated daily for 4-8 weeks by subcutaneous administration of 5 μg of GHRH antagonists MIA-602 or AVR-compounds (2-10 μg as indicated), or vehicle solutions (0.1% DMSO in 10% 1, 2-propanediol) respectively. Tumor sizes were measured weekly.
as §4, §5

rat pituitary cells = assay: Inhibition of GHRH(1-29)NH2-stimulated GH release from rat pituitary cells (ELISA); assay type: cell-based; settings: analog 20 nM
Method: In vitro assessment of the antagonistic activity of GHRH analogs. Rats were decapitated and pituitaries were collected in pre-warmed HBSS (Hanks' Balanced Salt Solution). Tissue was then cut into small pieces and digested in HBSS medium containing 3% BSA, 50 μg/ml gentamycin and 0.5% collagenase for 50 minutes at 37° C. Cells were further dispersed by pipetting and passed through a 100 μm cell strainer with the addition of DMEM containing 50 μg/ml gentamycin, 10% horse serum and 2.5% FBS (growth medium). Cells were harvested at 475×g for 2 minutes, resuspended in fresh growth medium and seeded onto poly-D-lysine-coated 24-well plates (7 pituitaries/plate). Cells were left to recover for 4 days. Growth medium was then replaced with serum-free DMEM for 4 hours and GHRH analogs (at concentration of 20 nM) were added in DMEM containing 0.1% BSA for 30 minutes. Cells were replenished with medium containing the same concentration of the analogs and 1 nM GHRH(1-29)NH2 for 30 minutes. Medium from this step was collected, centrifuged at 800 g for 3 minutes and GH concentration was determined by ELISA (ALPCO Diagnostics, Mill Valley, CA) according to the manufacturer's instruction.

SK-OV-3 xenograft = assay: Xenograft tumor growth in nude mice, ovarian cancer SK-OV-3; assay type: in vivo; settings: Panel L, 7 weeks
Method: as §1, §2, §3, §6, §4, §5

OVCAR-3 xenograft = assay: Xenograft tumor growth in nude mice, ovarian cancer OVCAR-3; assay type: in vivo; settings: Panel M, 9 weeks
Method: as §1, §2, §3, §6
(§7) Statistical analysis. One-way ANOVA followed by Bonferroni comparison were performed. Data are expressed as Mean±SEM. […]

HT-29 xenograft = assay: Xenograft tumor growth in nude mice, colon cancer HT-29; assay type: in vivo; settings: Panel G, 6 weeks
Method: as §1, §2, §3, §6, §4, §5

PC3 xenograft = assay: Xenograft tumor growth in nude mice, prostate cancer PC3; assay type: in vivo; settings: Panel N, 8 weeks, 5 μg/day s.c.
Method: as §1, §2, §3, §6, §7

| IC50 ([1]; human anterior pituitary membranes, mean of two to three determinations, read-out: IC50) [nM] | SMILES | Binding affinity to membrane receptors of human pituitary cells [1] | % Inhibition (NCI-N87 xenograft) [%] | % Inhibition (HCC827 xenograft; Panel B, 7 weeks) [%] | % Inhibition (HCC827 xenograft; Panel C, 8 weeks) [%] | Inhibitory effect on the release of GH compared with MIA-602 (rat pituitary cells) | Tumor Growth % (SK-OV-3 xenograft; 2.5 μg/day s.c.) [%] | Tumor Growth % (SK-OV-3 xenograft; 5 μg/day s.c.) [%] | Tumor Growth % (OVCAR-3 xenograft; 2.5 μg/day s.c.) [%] | Tumor Growth % (OVCAR-3 xenograft; 5 μg/day s.c.) [%] | Tumor Growth % (HT-29 xenograft; 2 μg/day s.c.) [%] | Tumor Growth % (HT-29 xenograft; 5 μg/day s.c.) [%] | Tumor Growth % (PC3 xenograft) [%] |
| --- | --- | --- | --- | --- | --- | --- | --- | --- | --- | --- | --- | --- | --- |
| – | CCCC[C@H](NC(=O)[C@@H](NC(=O)[C@H](CC(=O)O)NC(=O)[C@H](CCC(N)=O)NC(=O)[C@H](CC(C)C)NC(=O)[C@H](CC(C)C)NC(=O)[C@H](CCCCN)NC(=O)[C@H](CCCNC(=N)N)NC(=O)[C@H](C)NC(=O)[C@H](CO)NC(=O)[C@H](CC(C)C)NC(=O)[C@H](CCC(N)=O)NC(=O)[C@H](CC)NC(=O)[C@H](CC(C)C)NC(=O)[C@@H](NC(=O)[C@H](CCCCN)NC(=O)[C@H](CCCNC(=N)N)NC(=O)[C@H](Cc1c(F)c(F)c(F)c(F)c1F)NC(=O)[C@H](CCCCNC(=N)N)NC(=O)[C@H](C)NC(=O)[C@@H](NC(=O)[C@H](Cc1ccc(Cl)cc1)NC(=O)[C@@H](NC(=O)[C@H](C)NC(=O)[C@H](CC(=O)O)NC(=O)[C@@H](CCCNC(=N)N)NC(=O)[C@H](Cc1ccc(O)cc1)NC(=O)CCCCCCCCCCCNC(=O)Cc1c(F)c(F)c(F)c(F)c1F)[C@@H](C)CC)[C@@H](C)O)C(C)C)[C@@H](C)CC)C(=O)N[C@H](CCCNC(=N)N)C(=O)N[C@@H](CCCCNC(=N)N)C(=O)NCCCCCCCCCCCC(N)=O [AVR-353, 5FPhAC-Ada-Tyr-DArg-Asp-Ala-Ile-Cpa-Thr-Ala-Har-5FPhe-Arg-Lys-Val-Leu-Abu-Gln-Leu-Ser-Ala-Arg-Lys-Leu-Leu-Gln-Asp-Ile-Nle-DArg-Har-Ada-NH2] ({Phenylacetyl(2,3,4,5,6-F5)-12Ado}-Y[dR]DAI[Phe(4-Cl)]TA[hArg][Phe(F5)]RKVL[Abu]QLSARKLLQDI[Nle][dR][hArg][12Ado]-NH2) | higher binding affinity in comparison to MIA-602; also recorded: highest binding affinities | 65.0 | 71.0 | 50.0 | higher inhibitory effects than MIA-602 | 1056.0 | 910.7 | 357.0 | 255.2 | 549.30 | 494.70 | 496.7 |
| 0.14 | CCCC[C@H](NC(=O)[C@@H](NC(=O)[C@H](CC(=O)O)NC(=O)[C@H](CCC(N)=O)NC(=O)[C@H](CC(C)C)NC(=O)[C@H](CC(C)C)NC(=O)[C@H](CCCCN)NC(=O)[C@H](CCCNC(=N)N)NC(=O)[C@H](C)NC(=O)[C@H](CO)NC(=O)[C@H](CC(C)C)NC(=O)[C@H](CCC(N)=O)NC(=O)[C@H](CC)NC(=O)[C@H](CC(C)C)NC(=O)[C@@H](NC(=O)[C@H](CCCCN)NC(=O)[C@H](CCCNC(=N)N)NC(=O)[C@H](Cc1c(F)c(F)c(F)c(F)c1F)NC(=O)[C@H](CCCCNC(=N)N)NC(=O)[C@H](C)NC(=O)[C@@H](NC(=O)[C@H](Cc1ccc(Cl)cc1)NC(=O)[C@@H](NC(=O)[C@H](C)NC(=O)[C@H](CC(=O)O)NC(=O)[C@@H](CCCNC(=N)N)NC(=O)[C@H](Cc1ccc(O)cc1)NC(=O)CCCCCCCCCCCNC(=O)Cc1c(F)c(F)c(F)c(F)c1F)[C@@H](C)CC)[C@@H](C)O)C(C)C)[C@@H](C)CC)C(=O)N[C@H](CCCNC(=N)N)C(=O)N[C@@H](CCCCNC(=N)N)C(=O)NCCCCCCCCCCCC(=O)NC [AVR-354] ({Phenylacetyl(2,3,4,5,6-F5)-12Ado}-Y[dR]DAI[Phe(4-Cl)]TA[hArg][Phe(F5)]RKVL[Abu]QLSARKLLQDI[Nle][dR][hArg][12Ado]-NHMe) | higher binding affinity in comparison to MIA-602; also recorded: highest binding affinities | – | – | – | – | – | – | – | – | – | 417.90 | 343.6 |

Source: US11993640B2, “Treating inflammatory lung disease” (United States Government as represented by the Department …, priority 2019, dated 2024)
